Results on six molecules are retold here after PMC9266460, “KSK-74: Dual Histamine H3 and Sigma-2 Receptor Ligand with Anti-Obesity Potential” (International Journal of Molecular Sciences, 2022).

Series [1] relates to obese adults. Further details: method as in earlier work. The note with it: cited from earlier work.
The subject of series [2] is obese animal after olanzapine treatment. Further details: method as in PMID 11985350, PMID 22695490. Particulars: cited from earlier work.
The subject of series [3] is rats fed a palatable diet. The note with it: cited from earlier work; for inhibition of weight gain: model of excessive eating.
In series [4] the test system is mice fed a high-fat diet. Further details: method as in PMID 15447739. Particulars: highest dose; cited from earlier work.
Details of series [5]: method as in PMID 15447739. Particulars: cited from earlier work.
Series [6] addresses sigma-2 receptor. Further details: method as in PMID 34908391. The note with it: Figure 1; read-out: σ2R Ki; cited from earlier work.
Series [7] concerns the target sigma-1 receptor. Further details: method as in PMID 34908391. The note with it: Figure 1; read-out: σ1R Ki; cited from earlier work.
Series [8] has as its target T1, H3R (Homo sapiens, UniProt Q9Y5N1).
T1 construct: the Aequoscreen line co-expresses apoaequorin
Put plainly: Affinity at the H3R (literature values). Type of series: binding. Particulars: H3R Ki relative to sigma-2 Ki.

Series [9] concerns induced obesity in mice. Further details: method as in PMID 29802412. The note with it: i.p. 10 mg/kg b.w. for 14 days; cited from earlier work.
For series [10], the system named is rats fed a palatable diet. Put plainly: Model of excessive eating: body weight, calorie intake, fat pads. The format is in vivo, female Wistar rats. The method, then: Experiments were performed on female Wistar rats with an initial body weight of 140–160 g. The animals were housed in plastic cages (2 rats per cage) at a constant room temperature of 22 ± 2 °C, with a 12:12 h light/dark cycle. Water and food were available ad libitum. The randomly established experimental groups consisted of 6 rats for pharmacological studies and 3 rats for pharmacokinetic studies. All experiments were conducted in accordance with the Guide to the Care and Use of Experimental Animals, and were approved by the Jagiellonian University in Krakow Local Ethics Committee for Experiments on Animals (Permission No: 185/2017, 220/2019 and 223A/2019).
Female rats were randomly divided into several groups (n = 6) and studied for 4 weeks. The groups were as follows: standard diet + vehicle, palatable diet + vehicle, palatable diet + KSK-60 (1 mg/kg), palatable diet + KSK-60 (10 mg/kg), palatable diet + KSK-74 (1 mg/kg), palatable diet + KSK-74 (10 mg/kg), palatable diet + phentermine (7 mg/kg).
The studies for the 1 mg/kg b.w. and 10 mg/kg b.w. doses were performed at different times, so the parameters studied were compared to the respective control groups.
Rats fed a palatable diet had access to a diet consisting of milk chocolate with nuts, cheese, salted peanuts, and 7% condensed milk, and simultaneously to a standard feed (Labofeed B, Morawski Manufacturer Feed, Poland) for 4 weeks. The water was available ad libitum. Animals had access to palatable products, but also to the standard feed. Most importantly, feeding was not in any way forced, as in other models where animals were fed only a high-fat diet, or temporarily deprived of food (binge eating models). In the case of our model, rats decided themselves when, what, and how much to eat. The weight was evaluated daily. Calorie intake was evaluated three times a week. A palatable diet contained 100 g of peanuts—612 kcal; 100 mL of condensed milk—131 kcal; 100 g of milk chocolate—529 kcal; and 100 g of cheese—325 kcal. The standard diet contained 100 g of feed—280 kcal. Standard diet (fats 8%, carbohydrates 67%, proteins 25%) contained 100 g feed—280 kcal.
The palatable control group (palatable diet + vehicle) received vehicle (1% Tween 80 i.p., daily, for 4 weeks), while palatable test groups were injected i.p. with KSK-60 (1 mg or 10 mg/kg i.p, daily, for 4 weeks), KSK-74 (1 mg/kg or 10 mg/kg i.p, daily, for 4 weeks), or phentermine (7 mg/kg i.p., daily, for 4 weeks), respectively.
On the 31st day, 20 min after i.p. administration of heparin (5000 units/rat) and thiopental (70 mg/kg b.w.), animals were sacrificed, and plasma as well as peritoneal fat pads were collected (food was stopped for 6 h prior to organ, tissue, and plasma collection) for further study.

Series [11] deals with peritoneal adipose tissue. Put plainly: Leptin, resistin, IL-6 and MCP-1 levels in adipose tissue (ELISA). The format is in vivo, female Wistar rats. Particulars: KSK 10 mg/kg i.p., phentermine 7 mg/kg. The method, then:
The frozen peritoneal adipose tissue was weighed, and homogenates were prepared by homogenizing 1 g of tissue in 4 mL of 0.1 M phosphate buffer, pH 7.4, using the IKA-ULTRA-TURRAX T8 homogenizer. The adipose tissue homogenates were then used for biochemical assays.
To determine the levels of leptin, resistin, IL-6, and MCP-1 in adipose tissue, the standard ELISA Kit (Cat. No E0561Ra, Cat. No E0211Ra, Cat. No E0135Ra, Cat. No E0193Ra, Bioassay Technology Laboratory, Shanghai, China) was used. To determine the levels of protein, a standard spectrophotometric test (Cat. No 1-008-B210, Biomaxima S.A. Lublin, Poland) was used.

The test system of series [12] is adipose tissue. Put plainly: Histological examination of adipose tissue (Masson's trichrome). Particulars: palatable diet. The format is in vivo, female Wistar rats. The method, then: Adipose tissue samples were prepared for histology using Masson’s trichrome stain (Merck) by fixation in 4% formaldehyde, dehydration in graded alcohol, and embedded in paraffin. The tissue samples were then sectioned using a microtome of 5 μm thickness. Six random fields from each section were analyzed in a blinded manner with an Olympus BX41 light microscope (Olympus, Tokyo, Japan) at magnifications of ×20, ×40 and ×100, and digital images were captured with an Olympus UC90 color camera. The quantitation of the number of adipocytes was performed in eight fields/slide with ×100 objective using an image analysis system: CellSensDimension (Olympus, Tokyo, Japan). The numerical density of the adipocytes was obtained by counting the total number of adipocytes per high-power field ([…]), and then this number was converted to 0.1 mm^2. According to stereometric rules, adipocytes tangent to the left and top edges of the image field were not counted. A semi-quantitative scale was used to assess the inflammatory response in adipose tissue. The following were evaluated on a subjective scale: inflammatory cell infiltration between adipocytes (0—normal, 1—few cells, 2—local clusters, and 3—extensive infiltrates), perivascular infiltration of immune cells (0—normal, 1—few cells, and 2—ring of inflammatory cells), widening of the septum (0—normal and 1—widening), and capillary congestion (0—normal and 1—congestion). A sum calculated from independently assessed values was calculated for each animal as an index of inflammation.

In series [13] the test system is rats fed a palatable diet. Put plainly: Plasma triglyceride and corticosterone levels in the model of excessive eating. Particulars: KSK 10 mg/kg, phentermine 7 mg/kg. The format is in vivo, female Wistar rats. The procedure: Blood was collected from the left carotid artery and then centrifuged at 600× g (15 min, 4 °C) to obtain plasma.
To determine plasma triglyceride levels, standard enzymatic and spectrophotometric tests (Cat. No 1-053-A150, Biomaxima S.A., Lublin, Poland) were used. The ELISA Kit (Item No. 501320, Cayman Chemical, Ann Arbor, MI, USA) was used to determine corticosterone levels in plasma.

T1 sequence (Q9Y5N1 whole entry): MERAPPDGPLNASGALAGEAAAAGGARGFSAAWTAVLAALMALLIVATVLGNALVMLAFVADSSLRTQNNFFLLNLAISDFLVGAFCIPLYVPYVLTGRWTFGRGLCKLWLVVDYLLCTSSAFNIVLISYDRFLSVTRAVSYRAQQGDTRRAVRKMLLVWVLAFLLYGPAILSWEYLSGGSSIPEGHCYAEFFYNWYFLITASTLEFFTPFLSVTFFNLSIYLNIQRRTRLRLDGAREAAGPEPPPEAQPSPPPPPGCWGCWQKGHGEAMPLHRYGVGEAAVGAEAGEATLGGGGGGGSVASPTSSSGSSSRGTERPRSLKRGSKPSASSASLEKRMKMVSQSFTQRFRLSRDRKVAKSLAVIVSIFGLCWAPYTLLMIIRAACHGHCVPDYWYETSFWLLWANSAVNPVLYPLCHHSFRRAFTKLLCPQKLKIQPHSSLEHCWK

For the molecule `CNCCc1ccccn1` [Betahistine, reference compound], the “reduction of body weight and waist circumference compared with Orlistat” value in series [1] is reported as “did not show significant differences”. For the same molecule, the body weight entry in [2] is given as “induced significant weight loss”. In addition, in [3] (rat model of excessive eating), the “high-density lipoprotein (HDL) levels, long-term administration” value is recorded as “increases high-density lipoprotein (HDL) levels” and the “weight gain, long-term administration” value is on record as “slows weight gain”.
Regarding `CN(C)[C@@H]1CCN(CCCOc2ccc(-c3ccc(C#N)cc3)cc2)C1` [Compound A-331440], the body weight entry in [4] is given as “induced weight loss comparable to mice fed a low-fat diet”. In addition, the “reason for exclusion from clinical trials” value in [5] is on record as “genotoxicity”.
What is called Ki is a dissociation constant, usually derived from enzyme kinetics or from competition with a known ligand. Take `CC(=O)c1ccc(OCCCCCCN2CCN(c3ccncc3)CC2)cc1` [KSK-59]: the figures for the Ki in [6] and in series [7] were 151 nM and 37.8 nM, respectively. In addition, the “inhibition of weight gain” value in [3] is given as “high efficacy in inhibiting weight gain”.
Turning to `CC(=O)c1ccc(OCCCCCCCCN2CCN(c3ccncc3)CC2)cc1` [KSK-73], the “affinity ratio H3/sigma-2 receptors” value in series [8] worked out at 0.68. Also, the Ki in series [6] was 59.7 nM; in series [7] it was 408 nM. The “inhibition of weight gain” value in series [3] is recorded as “high efficacy in inhibiting weight gain”.
Turning to `Clc1ccc(CCCOCCCN2CCCCC2)cc1` [Pitolisant], in series [9], the “body weight and metabolic disturbances” value was “positive influence on body weight, glucose tolerance, and lipid profile”.
Consider `CC(C)(N)Cc1ccccc1` [phentermine, reference compound], for which the “amount of peritoneal fat pads vs palatable diet + vehicle” value in [10] (KSK 10 mg/kg, phentermine 7 mg/kg, end of experiment) was “fewer peritoneal fat pads”. Also, the “calorie intake vs control group fed palatable feed” value in series [10] (i.p. 28 days, KSK 10 mg/kg b.w., phentermine 7 mg/kg b.w.) is given as “did not significantly influence the amount of calories consumed”. Moreover, the “body weight gain vs palatable diet + vehicle” value in series [10] (i.p. daily 4 weeks, KSK-60/KSK-74 10 mg/kg b.w., phentermine 7 mg/kg) is recorded as “gained less weight”. In addition, the “resistin levels in adipose tissue vs palatable diet + vehicle” value in series [11] is reported as “did not influence”. Also, the “leptin levels in adipose tissue” value in series [11] (vs palatable diet + vehicle unless worded otherwise) was “did not influence”. Further, the “capillary congestion and crown-like structures in adipose tissue” value in series [12] (7 mg/kg) was “marked capillary congestion and frequent appearance of crown-like structures”. Further, the “inflammatory infiltrates in adipose tissue (histological description)” value in [12] (KSK 10 mg/kg, phentermine 7 mg/kg) was “slightly less inflammatory infiltrates”. In addition, the “number of adipocytes per 0.1 mm^2 of cross-sectional area” value in series [12] (KSK 10 mg/kg, phentermine 7 mg/kg, means ± SD, n = 6) was “more similar to the results of the palatable diet + vehicle group”. Further, the “inflammatory index of the adipose tissue” value in series [12] (KSK 10 mg/kg, phentermine 7 mg/kg, standard diet + vehicle 0.5 ± 0.34) is 4.16 ± 0.48. Besides, in [12] (n = 6 per group), the “number of rats, Capillary Congestion grade 1-Congestion” value is 6; the “number of rats, Inflammatory Cell Infiltration grade 1-Few Cells” value is on record as 4; the “number of rats, Inflammatory Cell Infiltration grade 2-Local Clusters” value is on record as 2; the “number of rats, Perivascular Infiltration grade 0-Normal” value turned out to be 1. Moreover, in [12] (n = 6 per group), the “number of rats, Perivascular Infiltration grade 1-Few Cells” value is on record as 4; the “number of rats, Perivascular Infiltration grade 2-Ring of Cells” value is 1; the “number of rats, Widening of the Septum grade 0-Normal” value was 1; the “number of rats, Widening of the Septum grade 1-Widening” value is given as 5. Besides, the “plasma triglyceride levels vs palatable diet + vehicle” value in [13] is “lower plasma triglyceride levels”.
